The values that follow come from patent US20150111852A1, “1-Di(sec-butyl)-phosphinoyl-pentane (dapa-2-5) as a topical agent” (priority 2013, published 2015).

Assay [1] concerns capsaicin-induced cough. The experiment in a line: Guinea pig cough model, capsaicin mist. It counts as in vivo. As to conditions: capsaicin 0.1 mM mist, identical design. As for the experimental part:
This study was repeated with an identical design, but using capsaicin 0.1 mM mist as the stimulus.

Assay [2] deals with citric acid-induced cough. As to the kind of experiment: Guinea pig cough model, citric acid mist. Conditions: 2 mg/mL in saline, 75 μL per animal, 1 M citric acid mist, 10 min observation period. It counts as in vivo. The protocol:
Male specific pathogen—free guinea pigs about one month of age, weighing 250 to 300 g, were obtained from the medical experimental animal center of Guang Dong Province, China, and housed in rooms maintained at 22±2° C. and 55±15% humidity with a 12-hr light cycle and 20 air changes per hr. The experimental procedures were approved by the Institutional Animal Care and Use Committee. Guinea pigs were placed in a transparent plastic 2 L plethysmography chamber equipped with a bias flow regulator that withdrew air at a rate of 2.5 L/min (Buxco, Wilmington, N.C., USA). […] The frequency was detected as a transient change in airflow in the chamber and the signal recorded via a pressure transducer and computer. Additionally, the audio-amplified count was also recorded electronically. Coughs were counted for the 10 min exposure period. The experiment was visually monitored by the investigator. The baseline frequency of coughing was recorded for all animals (N=20) and 7 days later, animals were anesthetized with diethyl ether. […] Ten min after injection, the guinea pigs were exposed to the citric acid mist and the number of coughs recorded.

For assay [3], the system named is isolated normal mouse vagus. The experiment in a line: Capsaicin-induced depolarization of isolated vagus nerve, wild type. The protocol:
(§1) To examine the ability of DAPA-2-5 to suppress sensory discomfort, it was tested in an animal model developed at the Imperial College, London, U.K. [Birrell et al. TRPA1 agonists evoke coughing in guinea pig and human volunteers. Amer. J. Respiratory and Critical Care Medicine 180, 1042-7, 2009; Patel et al., Inhibition of guinea-pig and human sensory nerve activity and the cough reflex in guinea-pigs by cannabinoid (CB2) receptor activation. British J. Pharmacol. 140, 261-8 2003]. In this in vitro assay, segments of the vagus nerve are placed on a platform and the electrical activity is recorded after topical application of capsaicin. Capsaicin is a known irritant that elicits pain when it is applied to the skin and it will depolarize the isolated vagus. The ability of substances to inhibit this capsaicin-induced depolarization is measured.
(§2) Briefly, segments of vagus nerve, caudal to the nodose ganglion, were removed from mice with fine forceps and segments placed in oxygenated Krebs solution and bubbled with 95% O2/5% CO2. The desheathed nerve trunk was mounted in a ‘grease-gap’ recording chamber and constantly superfused with Krebs solution with a flow rate of approximately 2 mL/min, and the electrical activity of the nerve monitored with electrodes. The temperature of the perfusate was kept constant at 37° C. by a water bath. […]

The test system of assay [4] is isolated TRPM8 knock-out mouse vagus. As to the kind of experiment: Capsaicin-induced depolarization of isolated vagus nerve, TRPM8 knock-out. Conditions: 1 mg/mL, capsaicin 1 μM, TRPM8 KO, read-out: per cent inhibition of capsaicin-induced depolarization. As for the experimental part:
as §1, §2

Assay [5] has as its target T1, hNav1.7 (sodium channels) (Homo sapiens, UniProt Q15858).
T1 construct: expressed in transfected cells
As to the kind of experiment: Patch-clamp in transfected cells, hNav1.7. It counts as cell-based. As to conditions: DAPA-2-5 at 5 μM; positive control lidocaine.

T1 sequence (Q15858 whole entry): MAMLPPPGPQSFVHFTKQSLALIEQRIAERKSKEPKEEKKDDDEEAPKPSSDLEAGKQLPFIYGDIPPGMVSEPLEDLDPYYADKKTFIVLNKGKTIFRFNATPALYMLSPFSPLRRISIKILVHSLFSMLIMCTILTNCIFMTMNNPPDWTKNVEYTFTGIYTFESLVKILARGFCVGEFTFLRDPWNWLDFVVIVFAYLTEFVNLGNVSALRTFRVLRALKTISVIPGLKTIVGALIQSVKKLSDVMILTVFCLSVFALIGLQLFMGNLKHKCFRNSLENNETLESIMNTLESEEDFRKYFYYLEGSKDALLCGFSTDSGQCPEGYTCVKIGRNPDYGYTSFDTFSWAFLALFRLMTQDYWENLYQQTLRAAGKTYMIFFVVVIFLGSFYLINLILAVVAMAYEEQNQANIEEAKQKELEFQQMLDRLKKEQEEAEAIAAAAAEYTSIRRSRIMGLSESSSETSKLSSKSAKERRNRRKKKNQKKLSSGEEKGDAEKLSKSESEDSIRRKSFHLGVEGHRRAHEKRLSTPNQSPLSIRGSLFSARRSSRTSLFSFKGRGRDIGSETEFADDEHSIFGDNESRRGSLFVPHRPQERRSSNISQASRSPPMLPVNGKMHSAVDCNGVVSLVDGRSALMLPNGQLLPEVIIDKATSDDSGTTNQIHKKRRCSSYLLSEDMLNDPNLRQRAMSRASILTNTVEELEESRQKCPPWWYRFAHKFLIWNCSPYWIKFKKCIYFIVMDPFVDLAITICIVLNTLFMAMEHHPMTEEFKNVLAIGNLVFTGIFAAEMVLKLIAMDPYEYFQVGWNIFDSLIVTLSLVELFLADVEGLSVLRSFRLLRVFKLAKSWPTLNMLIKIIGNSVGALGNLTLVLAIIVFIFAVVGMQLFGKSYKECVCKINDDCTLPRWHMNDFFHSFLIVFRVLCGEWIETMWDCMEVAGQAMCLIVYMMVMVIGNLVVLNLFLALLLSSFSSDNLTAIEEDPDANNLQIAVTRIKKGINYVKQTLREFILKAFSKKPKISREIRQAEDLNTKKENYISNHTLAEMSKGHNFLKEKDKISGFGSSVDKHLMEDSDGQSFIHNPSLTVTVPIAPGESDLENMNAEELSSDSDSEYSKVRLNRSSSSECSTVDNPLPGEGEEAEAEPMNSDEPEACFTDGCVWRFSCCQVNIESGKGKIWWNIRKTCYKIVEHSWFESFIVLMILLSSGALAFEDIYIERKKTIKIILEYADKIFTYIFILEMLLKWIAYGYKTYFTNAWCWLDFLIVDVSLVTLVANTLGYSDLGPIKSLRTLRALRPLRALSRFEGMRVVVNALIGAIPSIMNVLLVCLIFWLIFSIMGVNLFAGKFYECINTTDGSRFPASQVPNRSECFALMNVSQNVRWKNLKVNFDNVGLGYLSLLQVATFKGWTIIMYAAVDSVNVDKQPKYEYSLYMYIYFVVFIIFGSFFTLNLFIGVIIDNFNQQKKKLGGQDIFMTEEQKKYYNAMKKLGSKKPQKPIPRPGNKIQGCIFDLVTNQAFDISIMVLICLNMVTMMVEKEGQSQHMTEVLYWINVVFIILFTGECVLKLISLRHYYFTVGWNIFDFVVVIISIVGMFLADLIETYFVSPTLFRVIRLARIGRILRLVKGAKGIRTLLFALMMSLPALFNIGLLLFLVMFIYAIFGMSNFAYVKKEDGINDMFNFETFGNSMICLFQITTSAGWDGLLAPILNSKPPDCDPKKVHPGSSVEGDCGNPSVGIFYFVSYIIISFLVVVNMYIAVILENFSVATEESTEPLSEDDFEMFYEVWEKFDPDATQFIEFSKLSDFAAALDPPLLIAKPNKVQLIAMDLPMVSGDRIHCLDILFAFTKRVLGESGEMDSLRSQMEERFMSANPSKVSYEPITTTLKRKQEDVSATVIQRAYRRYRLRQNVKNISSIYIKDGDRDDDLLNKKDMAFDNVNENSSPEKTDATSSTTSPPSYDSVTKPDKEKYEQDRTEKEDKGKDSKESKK

As to `CCCCCP(=O)(C(C)CC)C(C)CC` (stereo not drawn) [DAPA-2-5, 1-Di(sec-butyl)-phosphinoyl-pentane], the “effect on capsaicin-induced coughing” value in assay [1] is “inhibited the capsaiscin-induced coughing”. This molecule also displayed a cough frequency in assay [2] of 6.7±1.6 coughs. In assay [3], the “depolarization evoked by the compound itself” value is reported as “did not evoke depolarization”. Also, the inhibition (commonly the percentage by which the read-out fell short of the control) at 1000 µg/mL in assay [3] (Mus musculus, 10 min, 1 mg/mL for 10 min, capsaicin 1 μM, read-out: per cent inhibition of capsaicin-induced depolarization) was roughly 60%; in assay [4], roughly 0%. Besides, in assay [5], the “agonist or antagonist activity, hNav1.7” value is given as “No agonist or antagonist activities”.
